Ends that are not written are not given here.
Key:
sheep erythrocytes = test: Hemolysis assay; assay type: cell-based; settings: for hemolytic activity, in words: 6.25 to 50 µg/mL, sheep erythrocytes, 37 °C, 1 h
Procedure: Hemolytic activity of peptides was assessed as described by Dong et al., with some modifications. Fresh defibrinated sheep blood was obtained from the Institute of Virology, Vaccines and Sera “Torlak” (Belgrade, Serbia). Erythrocytes were washed three times with sterile Tris-buffered saline (TBS, 10 mM TRIS-HCl, pH 7.4, 150 mM NaCl) by centrifugation at 800× g for 5 min and resuspended to a final 2% (v/v) erythrocyte suspension in TBS.
Peptide solutions (0.02 M HCl) were diluted in Tris-buffered saline (TBS, 10 mM TRIS-HCl, pH 7.4, 150 mM NaCl) to final concentrations ranging from 6.25 to 50 µg/mL. In a 96-well flat-bottom plate, 100 µL of peptide solution was mixed with 100 µL of erythrocyte suspension and incubated at 37 °C for 1 h.
After incubation, the plates were centrifuged at 1000× g for 5 min, and 100 µL of the supernatant was transferred to a flat-bottom 96-well plate. Absorbance was measured at 540 nm using a microplate reader (model BioTek Epoch Microplate Spectrophotometer; Agilent Technologies, Winooski, VT, USA).
Hemolysis (%) was calculated relative to a negative control (TBS; 0% lysis) and a positive control (0.1% SDS; 100% lysis) using the formula: Hemolysis (%)=Asample−ATBS/ASDS−ATBS×100
(§1) The assay was performed in triplicate.

Caco-2 cells = system: Caco-2 cells
Procedure: Caco-2 cells were used in the toxicity assay to model the human intestinal epithelium, as they closely mimic the morphology and function of enterocytes. This makes them a relevant in vitro system for evaluating the potential cytotoxic effects of bacteriocins upon oral exposure or gastrointestinal application.
The cytotoxic effects of peptides were evaluated on human colorectal adenocarcinoma Caco-2 cells (ATCC HTB-37). The cells were cultured in Dulbecco’s Modified Eagle Medium (DMEM, high glucose; Gibco, Thermo Fisher Scientific) supplemented with 10% fetal bovine serum (FBS) and 1% penicillin–streptomycin. The cells were maintained at 37 °C in a humidified incubator with 5% CO2 and subcultured twice weekly, according to Popovic et al..
Cytotoxic effects of peptides on Caco-2 cells were assessed using a lactate dehydrogenase (LDH) release assay according to the manufacturer’s protocol (Lactate Dehydrogenase Cytotoxicity Assay Kit (Thermo Fisher Scientific, Waltham, MA, USA)). The Caco-2 cells were seeded in 96-well flat-bottom plates at a density of 2 × 10^4 cells per well and allowed to reach confluency over 48 h at 37 °C and 5% CO2.
The cells were then incubated for 24 h. Untreated cells (incubated with medium only) served as a negative control, and cells treated with LDH Lysis buffer were used as a positive control.
Following peptide treatment, 50 µL of cell culture supernatant was transferred from each well into a new 96-well plate. LDH reaction mixture (50 µL) was added to each well and incubated at room temperature for 30 min in the dark. The absorbance was measured at 490 nm using a microplate reader.
Cytotoxicity (%) was calculated using the following formula: Cytotoxicity (%) = Asample − Anegative/Apositive − Anegative × 100
as §1

| Sequence | hemolytic activity, in words (sheep erythrocytes) | Hemolytic activity (%) at 25 µg/mL (sheep erythrocytes; pH 7.4) | Hemolytic activity (%) at 50 µg/mL (sheep erythrocytes; pH 7.4) | TI (LC50/MIC), Caco-2 (Caco-2 cells) |
| --- | --- | --- | --- | --- |
| MWGRILGTVAKYAPKAVSWAWQHKWELINMGDLAFRYIQRIWG [Peptide G13A] | dose-dependent hemolysis | 22.69% | 28.86% | 1.20 |
| MWGRILATVAKYGPKAVSWAWQHKWELINMGDLAFRYIQRIWG [Peptide G7A] | some membrane-disruptive potential at elevated concentrations (50 µg/mL) | – | – | 5.11 |
| MWARILGTVAKYGPKAVSWAWQHKWELINMGDLAFRYIQRIWG [Peptide G3A] | no measurable hemolysis up to 25 µg/mL | – | – | 7.03 |
